# Patent US20040121410A1, “Pain signaling molecules” (priority 2002, published 2004)
# “Also recorded” adds a separate entry of the source.
# How the values were obtained:
# [1] = test system: FLRFa-induced calcium release in HEK-MrgA1; experiment: FLRFa-induced [Ca2+]i response in HEK-MrgA1 with pathway inhibitors; format: cell-based, human; conditions: HEK-MrgA1, 3 μM FLRFa; 10 μM U73122 or U73343 10 min pretreatment; 1 μM TG in 2 mM EGTA
# Method: (§1) Cells loaded with Fura-2/AM were stimulated with each agonist and fluorescence was recorded. Graphs represent an average plot of [Ca^2+]i measurements versus time (in s) in a minimum of 8 cells from representative experiments. Individual data points represent images taken at 0.8-s intervals. […] After a 10 minute pretreatment with U73122 and U73343, each agonist was added. FIGS. 2B and E show the extracellular [Ca^2+] dependency of Ca^2+ mobilization. Cells were preincubated for 2 minutes with 2 mM EGTA (open circles) or normal medium containing 1.2 mM calcium (closed circles) and then 3 μM FLRFa or 1 μM γ2-MSH was added. […] In the presence of 2 mM EGRA, TG (1 μM final concentration) was added to deplete internal Ca^2+ stores.
# (§2) The calcium source responsible for the initial peak in [Ca^2+]i was determined by depleting internal calcium stores with the application of 1 μM TG (FIGS. 2C and F).
# (§3) Heterotrimeric G proteins of the Gαi and Gαq class are involved in the propagation of signals from GPCRs leading to [Ca^2+]i elevation (Guderman et al. Ann. Rev. Pharmacol. Toxicol. 36:429-459 (1996)). To determine whether Gαi/o proteins are involved in the [Ca^2+]i response, we pretreated HEK-MrgA1 or HEK-MrgC11 cells with PTX (100 ng/ml) for 16 h. […] The dose dependency in [Ca^2+]i responses for both receptors were not affected by PTX (FIGS. 4A and D).
# [2] = test system: γ2-MSH-induced calcium release in HEK-MrgC11; experiment: γ2-MSH-induced [Ca2+]i response in HEK-MrgC11 with pathway inhibitors; format: cell-based, human; conditions: HEK-MrgC11, 1 μM γ2-MSH; 10 μM U73122 or U73343 10 min pretreatment; 1 μM TG in 2 mM EGTA
# Method: as §1, §2, §3
smiles,measurement,setting,value
COc1ccc2c(c1)CC[C@@H]1[C@@H]2CC[C@]2(C)[C@@H](NCCCCCCN3C(=O)C=CC3=O)CC[C@@H]12 [U73122],effect on FLRFa-induced calcium response,[1],blocked; also recorded: completely inhibited
same,effect on γ2-MSH-induced calcium response,[2],blocked; also recorded: completely inhibited
